From patent US8765802B2, “Kinase inhibitors, compositions thereof, and methods of use therewith” (Provid Pharmaceuticals, Inc., priority 2007, dated 2014)
pEC50: −log10 of the molar value.

What was measured:
[1] = target: T1, Chk2 (Homo sapiens, UniProt O96017); assay: Chk2 inhibitor IMAP assay (high-throughput Chk2 screening assay); type: biochemical; settings: IMAP fluorescence polarization assay, 10 μM ATP
T1 construct: made in house; host or cells: E. coli BL21 Star (Invitrogen)
Description: Compounds set forth in Table 1 were tested in the Chk2 inhibitor IMAP assay described herein in Example 6.84. […] The letters given for the Chk2 EC50 values in Table 1 represent the following ranges: A=<100 nM; B=100-300 nM; C=300-1000 nM; D=1-10 μM; and E>10 μM.
Compounds can be screened for Chk2 inhibitory activity using a high-throughput screening assay based in the immobilized metal ion affinity-based fluorescence polarization (IMAP) assay developed by Molecular Devices. This assay is based on the high affinity binding of phosphate by immobilized metal (MIII) coordination complexes on nanoparticles. A fluorescein-labeled peptide substrate is used as the substrate for the kinase activity of Chk2 in the assay. The IMAP binding reagent stops the kinase reaction. The binding of the binding reagent results in a change in the rate of molecular motion of the peptide and causes an increase in the fluorescence polarization value observed for the fluorescein label attached to the end of the peptide. Thus, inhibition of Chk2 would result in a decrease in fluorescence polarization compared to control.
A specific protocol for screening Compounds for Chk2 inhibitory activity follows.
A Compound is supplied at 1 mM in 0.5 μl DMSO on 384 well plates (such as Greiner or Corning). After thawing, 5 μl DMSO is added to the drug plate. The drug plate is then incubated for 10 minutes to solubilize the Compound. An additional 19.5 μl of reaction buffer (10× stock prepared using 100 mM Tris-HCl, 100 mM MgCl2, 1% BSA, pH 7.2, stored at 4° C.)+1 mM DDT is added to bring the Compound to 4× final concentration. A positive control is also prepared at 4× final concentration. The following control wells are used: less enzyme control (all reagents except enzyme; 5 μl/well), less Compound control (all reagents except Compound; 5 μl/well), positive control (all reagents plus staurosporine at a final concentration of 5 μM; 5 μl/well).
Reagents are then added in the following order to give the following final concentration: 2.5 μl ATP/Chk2tide (Molecular Devices) (10 μM/100 nM final concentration), 1.25 μl Compound (5 μM final concentration inf 5.5% DMSO), and 1.25 μl Chk2 (1:500, 2.4 μg/mL final concentration).
Plates are covered and incubated at room temperature for 60 minutes.
IMAP binding reagent (Molecular Devices) is diluted 1:400 into binding buffer (Molecular Devices). 15 μl of this solution is then added to all wells and the plates are covered and incubated for 30 minutes.
Plates are read using a Tecan Ultra under the fluorescence polarization mode. Gain is set to the less enzyme and less Compound wells for each plate. Excitation 485 nm, emmission 535 nm, Z position 12519 and flashes 5 are used as settings. Raw data from the Tecan reader is imported into an access database for analysis.

[2] = tested on: HDMX in MCF7 cells; assay: HDMX degradation in MCF7 cells following DNA damage (Western blot); type: cell-based; settings: varying concentrations 2.5 h, then 1 μM topotecan 4 h or 10 Gy IR + 4 h
Description: FIG. 2. […] MCF7 cells were treated in the absence (control) or presence of compound 18 at varying concentrations for 2.5 hours. The cells were then exposed to either 1 μM topotecan (TPT) for 4 hours or they were exposed to 10 Gy IR and incubated for 4 hours. Whole cell extracts were made and Western blotting was performed to detect HDMX. The levels of HDMX were quantified from the blots and normalized to actin. The normalized levels of HDMX are depicted as bar graphs under the blots.

[3] = tested on: mouse thymocytes; assay: IR-induced apoptosis in mouse thymocytes (PI staining, FACS); type: cell-based; settings: thymocytes from Chk2+/+ or Chk2-/- mice, 1 μM for 1 h, 5 Gy IR, 16 h
Description: FIG. 3. […] Thymocytes were isolated from Chk2+/+ or Chk2−/− mice by mechanical disaggregation. The isolated thymocytes were treated in the absence or presence of 1 μM compound 18 or ref^λ (J. Wu et al, Bioorganic and Medicinal Chemistry letters, 2007, 17(1), 172, [N-isobutyl analog of compound 7]) for 1 hour. The cells were then exposed to 5 Gy IR and incubated for 16 hours. The cells were then washed in PBS and fixed in ethanol. Propidium isodide (PI) was added in the presence of RNAse A before being subjected to flow cytometry. The graphs show FACS analysis of the PI stained cells.

[4] = tested on: OVCAR-4 cells; assay: Combination with camptothecin in OVCAR-4 cells (MTS growth inhibition); type: cell-based, human; settings: 48 h, MTS staining, 40 combinations
Description: FIG. 4. Compound 18 is synergistic with camptothecin (CPT) in OVCAR-4 cells. OVCAR-4 cells were treated with either compound 18 or CPT as single agents in 96 well tissue culture plates. In addition, the cells were exposed to 40 combinations of compound 18 and CPT. The drug treatments were for 48 hours and the cells were then subjected to MTS staining to determine the growth inhibitory effect. The graph represents a 3-dimensional plot of the MTS data obtained. The upper, light gray surface represents a theoretical surface of additivity that was generated from dose response curves of compound 18 alone and CPT alone. The lower, dark grey surface depicts the surface of the combination of compound 18 and CPT that was generated from data obtained in the MTS assay (shown by the blue circles). Data points lying under the green additivity surface are deemed to synergistic combinations. The bar graph on the right is a 2-dimensional representation of 1 combination of 11 μM compound 18 and 6.25 μM CPT taken from the 3-D model.

T1 sequence (O96017 whole entry): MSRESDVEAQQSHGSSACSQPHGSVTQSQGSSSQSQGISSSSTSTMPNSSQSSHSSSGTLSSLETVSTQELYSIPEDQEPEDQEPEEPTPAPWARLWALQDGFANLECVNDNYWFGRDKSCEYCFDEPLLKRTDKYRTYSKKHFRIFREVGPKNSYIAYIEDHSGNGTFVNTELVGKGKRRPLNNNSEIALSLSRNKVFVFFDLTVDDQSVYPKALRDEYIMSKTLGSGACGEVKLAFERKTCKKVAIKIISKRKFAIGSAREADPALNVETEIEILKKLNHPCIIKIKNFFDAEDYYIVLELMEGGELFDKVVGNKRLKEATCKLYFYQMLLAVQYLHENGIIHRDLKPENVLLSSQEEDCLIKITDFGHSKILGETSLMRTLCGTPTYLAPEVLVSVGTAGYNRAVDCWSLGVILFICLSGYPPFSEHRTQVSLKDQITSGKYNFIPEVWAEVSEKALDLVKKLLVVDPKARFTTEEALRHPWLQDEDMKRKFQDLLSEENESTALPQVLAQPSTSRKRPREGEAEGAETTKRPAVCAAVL

With `C/C(=N\NC(=N)N)c1ccc(NC(=O)c2cc3cccc([N+](=O)[O-])c3[nH]2)cc1` [Compound 18] the pEC50 [1] was > 7.00, the “Effect on HDMX degradation following DNA damage” value [2] was “Abrogation of HDMX degradation” and the “Effect on IR-induced apoptosis” value [3] was “abrogation of IR-induced apoptosis”. The “Combination effect with camptothecin (CPT)” value [4] was “synergistic”.
